# Data as given in patent US20080161249A1, “Use of Novel Antibacterial Compounds” (SMITHKLINE BEECHAM CORPORATION, priority 2004, published 2008).
# Read-outs that look alike come from different tables or passages of the source.
# Legend:
# S. aureus strain RN4220 = assay: MIC against S. aureus strain RN4220, alone and in combination; type: cell-based, Staphylococcus aureus; settings: for MIC: Staphylococcus aureus
# S. aureus strain Oxford = assay: MIC against S. aureus strain Oxford, alone and in combination; type: cell-based, Staphylococcus aureus; settings: for MIC: Staphylococcus aureus
# From the text: (§1) Subinhibitory Concentrations of PDF Inhibitors Decrease the MICs of Macrolides against Representative S. aureus Strains
# (§2) Subinhibitory Concentrations of Macrolides Decrease the MICs of PDF Inhibitors against Representative S. aureus Strains
# S. aureus WCUH29 = assay: MIC against S. aureus WCUH29, alone and with subinhibitory concentrations of a second agent; type: cell-based, Staphylococcus aureus; settings: for MIC: Staphylococcus aureus, WCUH29, S. aureus WCUH29
# S. aureus strain Smith = assay: MIC against S. aureus strain Smith, alone and in combination; type: cell-based, Staphylococcus aureus; settings: for MIC: Staphylococcus aureus
# [1] = system: representative S. aureus strains; assay: MIC against representative S. aureus strains, summary over strains; type: cell-based, Staphylococcus aureus
# From the text: as §1, §2
# H. influenzae Q1 = assay: MIC against H. influenzae Q1, alone and with subinhibitory concentrations of a second agent; type: cell-based, Haemophilus influenzae;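 also: combinations paired PDF inhibitors with macrolides, one class added below its own MIC to test whether the MIC of the other class dropped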
# S. aureus strain PK1 = assay: MIC against S. aureus strain PK1, alone and in combination; type: cell-based, Staphylococcus aureus; settings: for MIC: Staphylococcus aureus
# From the text: as §1, §2
# [2] = single agent, read-out: MIC, Compound (1a) alone
# [3] = with ¼ MIC of Tylosin, read-out: MIC, Compound (1a) with ¼ MIC of Tylosin
# [4] = with ½ MIC of Tylosin, read-out: MIC, Compound (1a) with ½ MIC of Tylosin
# [5] = S. aureus, text summary of Example 4
# [6] = no second agent, read-out: MIC, single agent
# [7] = H. influenzae Q1, +0.25 ug/m Azithromycin
# [8] = H. influenzae Q1, +0.5 ug/mL Azithromycin
# [9] = macrolide alone, read-out: MIC, −Compound (1a)
# [10] = S. aureus WCUH29, +0.5 ug/mL Compound (1a)
# [11] = S. aureus WCUH29, +1 ug/mL Compound (1a)
# [12] = H. influenzae Q1, +0.5 ug/mL Compound (1a)
# [13] = H. influenzae Q1, +1 ug/mL Compound (1a)
smiles,measurement,setting,value
"CCCCC[C@H](CN(O)C=O)C(=O)NNc1nccc(C(F)(F)F)n1 [Compound (1a), N-hydroxy-N-{(R)-2-[N′-(4-trifluoromethyl-pyrimidin-2-yl)-hydrazinocarbonyl]-heptyl}-formamide]",MIC,S. aureus strain RN4220; [2],4 µg/mL
same,MIC,S. aureus strain RN4220; [3],0.25 µg/mL
same,MIC,S. aureus strain RN4220; [4],0.03 µg/mL
same,"fold decrease MIC, Compound (1a) with ¼ MIC of Tylosin",S. aureus strain RN4220; with ¼ MIC of Tylosin,[16] fold
same,"fold decrease MIC, Compound (1a) with ½ MIC of Tylosin",S. aureus strain RN4220; with ½ MIC of Tylosin,[128] fold
same,MIC,S. aureus strain Oxford; [2],2 µg/mL
same,MIC,S. aureus strain Oxford; [3],1 µg/mL
same,MIC,S. aureus strain Oxford; [4],0.25 µg/mL
same,"fold decrease MIC, Compound (1a) with ¼ MIC of Tylosin",S. aureus strain Oxford; with ¼ MIC of Tylosin,[2] fold
same,"fold decrease MIC, Compound (1a) with ½ MIC of Tylosin",S. aureus strain Oxford; with ½ MIC of Tylosin,[8] fold
same,Compound (1a) fold decrease MIC,"S. aureus WCUH29; S. aureus WCUH29, +Azithromycin 0.25 μg/ml {¼ × MIC}",[4] fold
same,Compound (1a) fold decrease MIC,"S. aureus WCUH29; S. aureus WCUH29, +Azithromycin 0.5 μg/ml {½ × MIC}",[8] fold
same,Compound (1a) fold decrease MIC,"S. aureus WCUH29; S. aureus WCUH29, +Ciprofloxacin 0.06 μg/ml {¼ × MIC}",[0] fold
same,Compound (1a) fold decrease MIC,"S. aureus WCUH29; S. aureus WCUH29, +Ciprofloxacin […] {½ × MIC}",[0] fold
same,Compound (1a) fold decrease MIC,"S. aureus WCUH29; S. aureus WCUH29, +Erythromycin 0.06 μg/ml {¼ × MIC}",[4] fold
same,Compound (1a) fold decrease MIC,"S. aureus WCUH29; S. aureus WCUH29, +Erythromycin […] {½ × MIC}",[8] fold
same,Compound (1a) fold decrease MIC,"S. aureus WCUH29; S. aureus WCUH29, +Tylosin 0.25 μg/ml {¼ × MIC}",[4] fold
same,Compound (1a) fold decrease MIC,"S. aureus WCUH29; S. aureus WCUH29, +Tylosin 0.5 μg/ml {½ × MIC}",[32] fold
same,decrease of MIC by subinhibitory concentrations of azithromycin,S. aureus WCUH29; [5],4-8 fold
same,decrease of MIC by subinhibitory concentrations of erythromycin,S. aureus WCUH29; [5],4-8 fold
same,decrease of MIC by subinhibitory concentrations of tylosin,S. aureus WCUH29; [5],4-32 fold
same,effect of subinhibitory concentrations of ciprofloxacin on antibacterial potency,S. aureus WCUH29; [5],no effect
same,MIC,"S. aureus WCUH29; +Azithromycin 0.25 μg/ml {¼ × MIC}, read-out: Compound (1a) MIC",0.5 µg/mL
same,MIC,"S. aureus WCUH29; +Azithromycin 0.5 μg/ml {½ × MIC}, read-out: Compound (1a) MIC",0.25 µg/mL
same,MIC,"S. aureus WCUH29; +Ciprofloxacin 0.06 μg/ml {¼ × MIC}, read-out: Compound (1a) MIC",2 µg/mL
same,MIC,"S. aureus WCUH29; +Ciprofloxacin […] {½ × MIC}, read-out: Compound (1a) MIC",2 µg/mL
same,MIC,"S. aureus WCUH29; +Erythromycin 0.06 μg/ml {¼ × MIC}, read-out: Compound (1a) MIC",0.5 µg/mL
same,MIC,"S. aureus WCUH29; +Erythromycin […] {½ × MIC}, read-out: Compound (1a) MIC",0.25 µg/mL
same,MIC,"S. aureus WCUH29; +Tylosin 0.25 μg/ml {¼ × MIC}, read-out: Compound (1a) MIC",0.5 µg/mL
same,MIC,"S. aureus WCUH29; +Tylosin 0.5 μg/ml {½ × MIC}, read-out: Compound (1a) MIC",0.06 µg/mL
same,MIC,S. aureus WCUH29; [6],2 µg/mL
same,MIC,S. aureus strain Smith; [2],4 µg/mL
same,MIC,S. aureus strain Smith; [3],0.5 µg/mL
same,MIC,S. aureus strain Smith; [4],0.125 µg/mL
same,"fold decrease MIC, Compound (1a) with ¼ MIC of Tylosin",S. aureus strain Smith; with ¼ MIC of Tylosin,[8] fold
same,"fold decrease MIC, Compound (1a) with ½ MIC of Tylosin",S. aureus strain Smith; with ½ MIC of Tylosin,[32] fold
same,decrease of MIC by subinhibitory concentrations of tylosin,[1]; Example 6,2-128 fold
same,"MIC, antibiotic with 0.25 ug/m (¼ MIC) of Azithromycin",H. influenzae Q1; [7],1 µg/mL
same,"fold decrease MIC, antibiotic with 0.25 ug/m (¼ MIC) of Azithromycin",H. influenzae Q1; [7],[2] fold
same,"MIC, antibiotic with 0.5 ug/mL (½ MIC) of Azithromycin",H. influenzae Q1; [8],0.5 µg/mL
same,"fold decrease MIC, antibiotic with 0.5 ug/mL (½ MIC) of Azithromycin",H. influenzae Q1; [8],[4] fold
same,"MIC, antibiotic alone","H. influenzae Q1; H. influenzae Q1, single agent (Example 8)",2 µg/mL
same,MIC,S. aureus strain PK1; [2],0.5 µg/mL
same,MIC,S. aureus strain PK1; [3],0.06 µg/mL
same,MIC,S. aureus strain PK1; [4],0.016 µg/mL
same,"fold decrease MIC, Compound (1a) with ¼ MIC of Tylosin",S. aureus strain PK1; with ¼ MIC of Tylosin,[8] fold
same,"fold decrease MIC, Compound (1a) with ½ MIC of Tylosin",S. aureus strain PK1; with ½ MIC of Tylosin,[32] fold
"CC[C@H]1OC(=O)C[C@@H](O)[C@H](C)[C@@H](O[C@@H]2O[C@H](C)[C@@H](O[C@H]3C[C@@](C)(O)[C@@H](O)[C@H](C)O3)[C@H](N(C)C)[C@H]2O)[C@@H](CC=O)C[C@@H](C)C(=O)/C=C/C(C)=C/[C@@H]1CO[C@@H]1O[C@H](C)[C@@H](O)[C@@H](OC)[C@H]1OC [Tylosin, tylosin]",MIC,S. aureus strain RN4220; [9],1 µg/mL
same,"fold decrease MIC, +Compound (1a) [¼ × MIC]",S. aureus strain RN4220; with ¼ × MIC of Compound (1a),[8] fold
same,"MIC, +Compound (1a) [½ × MIC]",S. aureus strain RN4220; with ½ × MIC of Compound (1a),0.06 µg/mL
same,"fold decrease MIC, +Compound (1a) [½ × MIC]",S. aureus strain RN4220; with ½ × MIC of Compound (1a),[16] fold
same,MIC,S. aureus strain Oxford; [9],0.5 µg/mL
same,"MIC, +Compound (1a) [¼ × MIC]",S. aureus strain Oxford; with ¼ × MIC of Compound (1a),0.06 µg/mL
same,"fold decrease MIC, +Compound (1a) [¼ × MIC]",S. aureus strain Oxford; with ¼ × MIC of Compound (1a),[8] fold
same,"MIC, +Compound (1a) [½ × MIC]",S. aureus strain Oxford; with ½ × MIC of Compound (1a),0.03 µg/mL
same,"fold decrease MIC, +Compound (1a) [½ × MIC]",S. aureus strain Oxford; with ½ × MIC of Compound (1a),[16] fold
same,"MIC, antibiotic with 0.5 ug/mL (¼ MIC) of Compound (1a)",S. aureus WCUH29; [10],0.25 µg/mL
same,"fold decrease MIC, antibiotic with 0.5 ug/mL (¼ MIC) of Compound (1a)",S. aureus WCUH29; [10],[4] fold
same,"MIC, antibiotic with 1 ug/mL (½ MIC) of Compound (1a)",S. aureus WCUH29; [11],0.125 µg/mL
same,"fold decrease MIC, antibiotic with 1 ug/mL (½ MIC) of Compound (1a)",S. aureus WCUH29; [11],[8] fold
same,"MIC, antibiotic alone","S. aureus WCUH29; S. aureus WCUH29, single agent",1 µg/mL
same,decrease of MIC by subinhibitory concentrations of Compound (1a),"S. aureus WCUH29; S. aureus, Example 3",4-8 fold
same,MIC,S. aureus WCUH29; [6],1 µg/mL
same,MIC,S. aureus strain Smith; [9],1 µg/mL
same,"MIC, +Compound (1a) [¼ × MIC]",S. aureus strain Smith; with ¼ × MIC of Compound (1a),0.25 µg/mL
same,"fold decrease MIC, +Compound (1a) [¼ × MIC]",S. aureus strain Smith; with ¼ × MIC of Compound (1a),[4] fold
same,"MIC, +Compound (1a) [½ × MIC]",S. aureus strain Smith; with ½ × MIC of Compound (1a),0.125 µg/mL
same,"fold decrease MIC, +Compound (1a) [½ × MIC]",S. aureus strain Smith; with ½ × MIC of Compound (1a),[8] fold
same,decrease of MIC by subinhibitory concentrations of Compound (1a),[1]; text summary of Example 5,4-32 fold
same,"MIC, antibiotic with 0.5 ug/mL (¼ MIC) of Compound (1a)",H. influenzae Q1; [12],8 µg/mL
same,"fold decrease MIC, antibiotic with 0.5 ug/mL (¼ MIC) of Compound (1a)",H. influenzae Q1; [12],[2] fold
same,"MIC, antibiotic with 1 ug/mL (½ MIC) of Compound (1a)",H. influenzae Q1; [13],4 µg/mL
same,"fold decrease MIC, antibiotic with 1 ug/mL (½ MIC) of Compound (1a)",H. influenzae Q1; [13],[4] fold
same,"MIC, antibiotic alone","H. influenzae Q1; H. influenzae Q1, single agent (Example 7)",16 µg/mL
same,decrease of MIC by subinhibitory concentrations of Compound (1a),"H. influenzae Q1; H. influenzae, text summary of Example 7",2-4 fold
same,MIC,S. aureus strain PK1; [9],2 µg/mL
same,"MIC, +Compound (1a) [¼ × MIC]",S. aureus strain PK1; with ¼ × MIC of Compound (1a),0.25 µg/mL
same,"fold decrease MIC, +Compound (1a) [¼ × MIC]",S. aureus strain PK1; with ¼ × MIC of Compound (1a),[8] fold
same,"MIC, +Compound (1a) [½ × MIC]",S. aureus strain PK1; with ½ × MIC of Compound (1a),0.06 µg/mL
same,"fold decrease MIC, +Compound (1a) [½ × MIC]",S. aureus strain PK1; with ½ × MIC of Compound (1a),[32] fold
